Columns and labels:
[1] = molecular target: E3 CRL4^CRBN (Homo sapiens (Human), UniProt Q13619); assay: Lenalidomide-dependent ubiquitination of CK1α by CRL4^CRBN; type: biochemical
Description: To prepare Flag-CK1α as a substrate for ubiquitination experiments described in FIGS. 2A-E, the expression vector (purchased from Addgene) was introduced to HEK-293T cells by transfection using Lipofectamine RNAIMAX (ThermoFisher) according to manufacturer's protocols. Cell extracts were prepared and the concentration of Flag-CK1α was determined using immunoblot analysis with purified GST-CK1α (Sigma) as a standard. Typically, 50-100 μl of extracts was used to attach to ˜15 μl of M2 beads (Sigma) at 4° C. for 2 hours. Unbound materials were removed by washing (first three times with a washing buffer containing 50 mM Tris-HCl, pH8.0, 1% Triton X-100, 0.5M NaCl, and then twice with buffer A plus 50 mM NaCl) and the resulting beads were used in the ubiquitination assay (15 μl). The concentration of Flag-CK1α was determined to be ˜100 nM.
Immobilized, Flag-CK1α-containing beads were initially incubated with a reaction mixture (10 μl) containing 50 mM Tris-HCl (pH7.4), 0.5 mM DTT, 0.1 mg/ml of BSA, 5 mM MgCl2, 100 nM CRL4^CRBN, 1 μM Lenalidomide (Selleckchem), 1 μM Fluorescein-Ub, 100 nM E1, and 1 μM UbcH5c. ATP (20 mM) was added last to initiate the reaction. The reaction was incubated on a thermomixer (1,300 rpm; Eppendorf) at 37° C. for 5 min. The resulting beads were then added with a second reaction mixture (5 μl) containing 50 mM Tris-HCl (pH7.4), 0.5 mM DTT, 0.1 mg/ml of BSA, 5 mM MgCl2, 4 μM I-Ub-Q31C/K48R, and 1 μM Cdc34b, in the presence or absence of E3 inhibitors as specified. The reaction was incubated on a thermomixer at 37° C. for times as indicated. The concentrations of enzymes, Ubs, and compounds stated above were adjusted based on a final volume of 15 μl. The beads were then washed using conditions as described above. Materials eluted from the beads were separated by 4-20% SDS-PAGE followed by detection with fluorescence scanning (Typhoon 9500) or immunoblot using anti-CK1α antibody (Abcam). […]

[2] = molecular target: ROC1-CUL1 (Homo sapiens (Human), UniProt Q13616); assay: Gel-based di-Ub synthesis; type: biochemical
Description: For the experiment shown in FIG. 7 and FIGS. 8A-B, the di-Ub synthesis reaction was carried out by preassembling the donor Ub mix. The donor Ub mixture (5 μl) contained 50 mM Tris HCl (pH 7.4), 5 mM MgCl2, 2 mM ATP, 0.5 mM DTT, 0.1 mg/mL BSA, 1 μM Ub-NC-I555, 0.1 μM E1, and 2 μM Cdc34b. The reaction was incubated for 5 min at 37° C. Compounds, in the amounts indicated, were added followed by the addition of ROC1-CUL1 (or related E3 subcomplex) in amounts as indicated and 10 μM PK-Ub (1-74) (as a receptor). The final volume was adjusted to 10 μl. The reaction was incubated for 10 min at 37° C.
For the experiments shown in FIG. 8C and FIG. 9, the reaction was assembled in a 10-μl mixture containing 50 mM Tris HCl (pH 7.4), 5 mM MgCl2, 0.5 mM DTT, 0.1 mg/mL BSA, 0.05 μM Ub-NC-I555, 2,5 μM PK-Ub (1-74), 0.1 μM E1, 1 μM Cdc34b, and 80 nM ROC1-CUL1 with or without compound. The reaction was initiated by the addition of 2 mM ATP. The products were separated by 4-20% SDS/PAGE and were visualized and quantified on a Typhoon FLA 9500 laser scanner (GE).

[3] = test system: cancer cells; assay: Apoptosis, Annexin V flow cytometry; type: cell-based
Procedure, shortened: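 5×10^4 cells were seeded 24 h before treatment, then cultured with compound for 48 h. Pelleted cells were washed in Annexin V binding buffer (HEPES pH 7.4, with CaCl2) and stained in the dark with Annexin V-FITC (2 μg/ml) for 5 min. Apoptosis was read by flow cytometry.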

[4] = test system: CACO-2; assay: CACO-2 permeability; type: in vitro ADME; conditions: for PGP substrate: PGP-transporter (MDR1)
Description: ADME studies on compounds #33-11 and KH-4-43 for “absorption, distribution, metabolism, and excretion” were carried out at CRO, BioDuro. Kinetic solubility, plasma and microsome stability in rat, mouse and human, as well as Caco-2 Permeability were examined.

[5] = Mouse i.p. PK; type: in vivo
[6] = End-of-study PK in MV4-11 xenograft mice; type: in vivo; conditions: mouse
Description: Tumor tissues were weighed at the end of study. At the endpoint, 100 μl blood and tumors from Group 3 (G3) and Group 4 (G4) were collected as shown in the Table 3, for further pharmacokinetics or biomarker analysis. Plasma were isolated from all blood samples.

[7] = test system: MV4-11 tumors; assay: AML MV4-11 subcutaneous xenograft; conditions: for tumor inhibition value: IP

Sequence of E3 CRL4^CRBN (Q13619 whole entry): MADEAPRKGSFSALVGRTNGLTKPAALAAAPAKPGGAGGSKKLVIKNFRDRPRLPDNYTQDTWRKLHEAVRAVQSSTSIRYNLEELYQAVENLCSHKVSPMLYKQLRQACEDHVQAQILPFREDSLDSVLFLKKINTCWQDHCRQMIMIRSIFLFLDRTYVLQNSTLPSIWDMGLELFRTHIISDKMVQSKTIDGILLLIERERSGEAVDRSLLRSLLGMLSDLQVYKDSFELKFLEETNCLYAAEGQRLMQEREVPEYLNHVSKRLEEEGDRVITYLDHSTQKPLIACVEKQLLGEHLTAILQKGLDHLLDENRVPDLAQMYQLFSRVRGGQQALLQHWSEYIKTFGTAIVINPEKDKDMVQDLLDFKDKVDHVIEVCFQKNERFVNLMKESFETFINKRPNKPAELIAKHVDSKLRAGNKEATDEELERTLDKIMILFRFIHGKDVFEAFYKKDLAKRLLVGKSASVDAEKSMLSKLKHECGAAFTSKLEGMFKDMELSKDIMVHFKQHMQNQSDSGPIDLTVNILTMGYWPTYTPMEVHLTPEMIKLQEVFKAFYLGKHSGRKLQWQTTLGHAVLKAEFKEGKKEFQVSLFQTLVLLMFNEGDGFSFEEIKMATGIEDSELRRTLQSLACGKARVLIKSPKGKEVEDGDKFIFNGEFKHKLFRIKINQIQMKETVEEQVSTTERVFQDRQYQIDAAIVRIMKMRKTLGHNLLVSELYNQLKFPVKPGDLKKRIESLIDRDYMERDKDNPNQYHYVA
Sequence of E3 CRL4^CRBN (P62877 whole entry partner): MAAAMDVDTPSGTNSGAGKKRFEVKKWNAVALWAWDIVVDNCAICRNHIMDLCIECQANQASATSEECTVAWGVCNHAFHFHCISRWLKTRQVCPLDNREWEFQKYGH
Sequence of E3 CRL4^CRBN (Q16531 whole entry partner): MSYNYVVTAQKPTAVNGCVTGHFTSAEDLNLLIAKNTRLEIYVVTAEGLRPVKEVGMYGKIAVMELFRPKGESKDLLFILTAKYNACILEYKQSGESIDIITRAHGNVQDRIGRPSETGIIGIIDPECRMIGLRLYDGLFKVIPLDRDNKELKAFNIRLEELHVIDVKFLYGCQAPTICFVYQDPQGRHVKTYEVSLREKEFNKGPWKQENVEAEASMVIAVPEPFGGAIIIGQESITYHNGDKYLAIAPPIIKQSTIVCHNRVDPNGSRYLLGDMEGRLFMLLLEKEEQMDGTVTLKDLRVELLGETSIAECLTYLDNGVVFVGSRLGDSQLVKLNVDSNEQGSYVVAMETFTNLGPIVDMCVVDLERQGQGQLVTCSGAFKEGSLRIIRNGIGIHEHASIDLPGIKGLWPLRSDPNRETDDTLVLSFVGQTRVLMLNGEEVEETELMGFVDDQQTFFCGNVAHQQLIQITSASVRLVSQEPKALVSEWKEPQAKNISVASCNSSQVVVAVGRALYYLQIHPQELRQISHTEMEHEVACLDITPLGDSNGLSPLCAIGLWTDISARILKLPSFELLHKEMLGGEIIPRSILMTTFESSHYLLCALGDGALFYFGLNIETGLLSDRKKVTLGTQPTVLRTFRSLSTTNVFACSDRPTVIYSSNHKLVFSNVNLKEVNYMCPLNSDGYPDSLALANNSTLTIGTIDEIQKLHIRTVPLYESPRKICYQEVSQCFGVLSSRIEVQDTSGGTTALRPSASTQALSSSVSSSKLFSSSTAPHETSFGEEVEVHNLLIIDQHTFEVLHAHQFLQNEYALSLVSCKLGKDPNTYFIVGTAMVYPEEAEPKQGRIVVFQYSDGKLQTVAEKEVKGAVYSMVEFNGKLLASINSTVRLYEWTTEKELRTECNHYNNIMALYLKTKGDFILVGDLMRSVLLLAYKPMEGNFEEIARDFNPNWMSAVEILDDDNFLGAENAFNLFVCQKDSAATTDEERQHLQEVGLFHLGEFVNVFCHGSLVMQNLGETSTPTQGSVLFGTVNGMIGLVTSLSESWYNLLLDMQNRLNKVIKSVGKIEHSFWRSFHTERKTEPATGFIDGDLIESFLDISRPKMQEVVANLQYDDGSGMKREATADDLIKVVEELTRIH
Sequence of E3 CRL4^CRBN (Q96SW2 whole entry partner): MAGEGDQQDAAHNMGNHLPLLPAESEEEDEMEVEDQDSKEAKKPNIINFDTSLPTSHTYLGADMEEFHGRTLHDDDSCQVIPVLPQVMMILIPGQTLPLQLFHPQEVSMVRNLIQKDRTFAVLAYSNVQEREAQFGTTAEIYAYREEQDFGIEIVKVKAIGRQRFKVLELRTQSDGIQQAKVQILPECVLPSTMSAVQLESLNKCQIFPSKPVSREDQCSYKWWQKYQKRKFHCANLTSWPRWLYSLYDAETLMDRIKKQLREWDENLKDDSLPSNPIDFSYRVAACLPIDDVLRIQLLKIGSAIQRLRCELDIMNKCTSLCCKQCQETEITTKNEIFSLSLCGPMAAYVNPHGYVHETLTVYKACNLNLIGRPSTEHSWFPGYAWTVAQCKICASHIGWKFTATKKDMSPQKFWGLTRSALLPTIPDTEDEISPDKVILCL
Sequence of ROC1-CUL1 (Q13616 whole entry): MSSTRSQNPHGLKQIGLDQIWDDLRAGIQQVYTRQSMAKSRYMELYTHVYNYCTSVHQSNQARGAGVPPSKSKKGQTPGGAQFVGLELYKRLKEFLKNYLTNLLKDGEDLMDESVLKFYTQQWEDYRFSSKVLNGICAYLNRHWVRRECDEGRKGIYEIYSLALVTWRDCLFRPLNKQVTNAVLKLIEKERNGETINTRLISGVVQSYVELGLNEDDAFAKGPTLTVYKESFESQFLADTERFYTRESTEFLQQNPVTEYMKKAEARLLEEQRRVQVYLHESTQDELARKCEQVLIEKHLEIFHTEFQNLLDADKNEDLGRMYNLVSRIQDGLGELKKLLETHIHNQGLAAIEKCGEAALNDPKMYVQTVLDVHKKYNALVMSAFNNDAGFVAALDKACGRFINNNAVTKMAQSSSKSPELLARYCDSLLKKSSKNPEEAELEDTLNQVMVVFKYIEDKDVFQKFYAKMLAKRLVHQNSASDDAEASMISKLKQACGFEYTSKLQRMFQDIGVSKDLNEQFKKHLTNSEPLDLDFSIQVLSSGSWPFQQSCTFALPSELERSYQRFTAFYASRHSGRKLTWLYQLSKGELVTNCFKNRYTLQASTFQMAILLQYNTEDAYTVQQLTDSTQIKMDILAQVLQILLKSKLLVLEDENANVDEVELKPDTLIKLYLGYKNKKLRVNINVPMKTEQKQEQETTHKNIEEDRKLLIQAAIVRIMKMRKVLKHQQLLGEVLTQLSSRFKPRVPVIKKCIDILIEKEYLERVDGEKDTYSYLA
Sequence of ROC1-CUL1 (P62877 whole entry partner): as the sequence (P62877 whole entry partner) above

O=c1c(-c2cnn(-c3ccccc3)c2)c(C(F)(F)F)oc2c(O)c(O)ccc12 [#33-11, 7,8-dihydroxy-3-(1-phenyl-1H-pyrazol-4-yl)-2-(trifluoromethyl)-4H-chromen-4-one]
inhibition of ubiquitination of CK1α ([1]; at 30 μM): Significant inhibitory effects | level of di-Ub product ([2]; up to 150 μM): remained almost unchanged | EC50 ([3]; Table 6): 13 µM | A:B/B:A [4]: 1.95 | Permeability [4]: high | PGP substrate [4]: probable | Ctrough ([5]; i.p. 100 mg/kg in DMSO): 160 nM | T1/2 ([5]; i.p. 100 mg/kg in DMSO): 7.2 h | AUC ([5]; i.p. 100 mg/kg in DMSO, 0-24 hr): 19.6 μM-hr | AUC ([6]; tumor, mice dosed with #33-11, read-out: AUC in tumors): 0.75 µM·h | tumor growth inhibition ([7]; earlier AML MV4-11 xenograft model study): did not reach statistically significant levels

O=c1c(-c2cnn(-c3ccc(Cl)cc3)c2)c(C(F)(F)F)oc2c(O)c(O)ccc12 [KH-4-43, 3-(1-(4-chlorophenyl)-1H-pyrazol-4-yl)-7,8-dihydroxy-2-(trifluoromethyl)-4H-chromen-4-one]
dose range inhibiting ubiquitination by CRL4 [1]: ~10 µM | discharge of Cdc34-Ub and production of Ub2 by ROC1-CUL1 [2]: no effect | EC50 ([3]; Table 1): 4 µM | EC50 ([3]; Table 6): 8 µM | Permeability [4]: highly permeable and high | PGP substrate [4]: not a substrate | 24 hr C-trough concentration ([5]; i.p. 100 mg/kg): 89 nM | tolerability ([5]; i.p. 100 mg/kg): well tolerated | Ctrough ([5]; i.p. 100 mg/kg in DMSO): 90 nM | AUC ([6]; BALB/c nude, plasma, ip, G3, 50 mg/kg Q2D, read-out: AUC over 24 hours in plasma): ~3.3 µM·h | AUC ([6]; BALB/c nude, tumor, ip, G4, 50 mg/kg QD, read-out: AUC over 24 hours in tumor): ~4.7 µM·h | tumor AUC higher than with #33-11 ([6]; in vivo): 6 fold | tumor inhibition value ([7]; G2, 25 mg/kg, Q2D): 18.60% | tumor inhibition value ([7]; G3, 50 mg/kg, Q2D): 25.15% | tumor inhibition value ([7]; G4, 50 mg/kg, QD): 38.90% | safety by body weight loss guideline (>20% toxic) ([7]; tested dose levels 25 and 50 mg/kg): judged to be safe

Reference: US20240174649A1, “CULLIN-RING E3 UBIQUITIN LIGASE 4 INHIBITOR COMPOUNDS AND METHODS OF THEIR USE” (ICAHN SCHOOL OF MEDICINE AT MOUNT SINAI, priority 2021, published 2024)
